# Assay results as given in article PMC8394243 (Biomolecules, 2021).
# Ends that are not written are not given here.
# Tests used:
# [1] = molecular target: human sputum leucocyte elastase (neutrophil elastase, NE) (Homo sapiens, UniProt P08246); conditions: 500 nM NE, 37 °C, 0-4 h, hourly samples; peptide 500 μg/mL or parental molar equivalent (160 or 120 μM); SDS-PAGE, Coomassie, visual
# Protocol: The method for reaction termination was dependent on subsequent experiments/analysis. For samples intended for investigation of peptide activity using in vitro experiments the reaction was terminated via addition of 1 mM of the serine protease inhibitor pefabloc (Merck, Gillingham, UK), which was added to all groups including the NE alone groups. Samples intended for peptide degradation analysis via SDS-PAGE or mass spectrometry were boiled at 95 °C for ten minutes using a heat block to terminate the reaction.
# Peptide samples were separated by sodium dodecyl sulphate-polyacrylamide gel electrophoresis (SDS-PAGE) under denaturing and reducing conditions using 4–12% Invitrogen NuPAGE Novex Bis-Tris precast gels (Thermo Fisher Scientific, Loughborough, UK) and the Invitrogen XCell SureLock Mini-Cell (Thermo Fisher Scientific, Loughborough, UK). An aliquot of 10 μL peptide samples was incubated with 4 μL NuPAGE lithium dodecyl sulphate (LDS) sample buffer (Thermo Fisher Scientific) and 2 μL of […] dithiothreitol (DTT) (Fluorochem, Hadfield, UK) for ten minutes at 95 °C and 15 μL of sample mixture loaded per lane and 5 μL of SeeBlue Plus2 pre-stained protein standard (Thermo Fisher Scientific, Loughborough, UK) loaded in at least one lane. The samples were run using 1X 2-morpholinoethanesulfonic acid (MES)-SDS running buffer (Thermo Fisher Scientific, Loughborough, UK). Electrophoresis was performed under a constant current of 125 mA for 40–60 min. The gel was stained using Biosafe Coomassie Brilliant Blue G-250 stain (Biorad, Watford, UK) for 60 min, washed and destained in water overnight and imaged using a Syngene G:box and GeneSnap software (Syngene, Cambridge, UK).
# [2] = SDS-PAGE; for Effect of pefabloc (serine protease inhibitor) on degradation in CF sputum, 4 h / Effect of pefabloc (serine protease inhibitor) on degradation in CF sputum, 24 h: 1 mM pefabloc pre-incubated 30 min with sputum (100-fold in TBS)
# Protocol: Sputum from Pseudomonas-infected CF patients was obtained anonymously from the adult CF Centre at Belfast City Hospital. Sputum samples were in excess to requirements for diagnostic purposes. Permission to use sputum samples, which would have been disposed of, for validation purposes was given by the Director of R&D, Belfast Health and Social Care Trust. Sputum was frozen immediately at −80 °C and used the next day after thawing at room temperature.
# Samples were transferred to a fresh Eppendorf at regular time-points (0, 1, 2, 3, 4, 18 and 24, as appropriate) and boiled on a heat block at 95 °C for ten minutes to terminate the reaction. […] CF sputum (diluted 100-fold in 1X TBS) was incubated with 0.1 mM E64, 5 mM EDTA or 1 mM pefabloc for 30 min prior to addition of peptides. Following the addition of peptide, the samples were incubated for four or 24 h at 37 °C. An aliquot was taken at 0, 4 or 24 h and boiled for ten minutes at 95 °C to terminate the reaction. Samples were stored at 4 °C until analysed by SDS-PAGE.
# Peptide samples were separated by sodium dodecyl sulphate-polyacrylamide gel electrophoresis (SDS-PAGE) under denaturing and reducing conditions using 4–12% Invitrogen NuPAGE Novex Bis-Tris precast gels (Thermo Fisher Scientific, Loughborough, UK) and the Invitrogen XCell SureLock Mini-Cell (Thermo Fisher Scientific, Loughborough, UK). An aliquot of 10 μL peptide samples was incubated with 4 μL NuPAGE lithium dodecyl sulphate (LDS) sample buffer (Thermo Fisher Scientific) and 2 μL of 500 nM dithiothreitol (DTT) (Fluorochem, Hadfield, UK) for ten minutes at 95 °C and 15 μL of sample mixture loaded per lane and 5 μL of SeeBlue Plus2 pre-stained protein standard (Thermo Fisher Scientific, Loughborough, UK) loaded in at least one lane. The samples were run using 1X 2-morpholinoethanesulfonic acid (MES)-SDS running buffer (Thermo Fisher Scientific, Loughborough, UK). Electrophoresis was performed under a constant current of 125 mA for 40–60 min. The gel was stained using Biosafe Coomassie Brilliant Blue G-250 stain (Biorad, Watford, UK) for 60 min, washed and destained in water overnight and imaged using a Syngene G:box and GeneSnap software (Syngene, Cambridge, UK).
# [3] = CF sputum (diluted 100-fold in 1X tris-buffered saline (TBS)); conditions: CF patients, 37 °C, up to four hours
# [4] = tested on: human sputum leucocyte elastase (neutrophil elastase, NE); assay: 500 nM of NE in 1 X TBS; conditions: 37 °C, up to four hours
# [5] = molecular target: neutrophil elastase (Homo sapiens, UniProt P08246); conditions: 500 μg/mL peptide, 500 nM NE in 1X TBS, 4 h, 37 °C; MALDI-TOF-MS
# neutrophil elastase, sequence (P08246 30-247 limits assumed): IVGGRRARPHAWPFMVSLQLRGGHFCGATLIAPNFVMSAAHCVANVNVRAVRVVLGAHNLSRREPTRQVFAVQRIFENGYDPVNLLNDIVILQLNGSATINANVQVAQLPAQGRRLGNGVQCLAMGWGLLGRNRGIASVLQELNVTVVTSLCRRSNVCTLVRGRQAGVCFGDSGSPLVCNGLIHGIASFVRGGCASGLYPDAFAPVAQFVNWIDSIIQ
# Protocol: The method for reaction termination was dependent on subsequent experiments/analysis. […] Samples intended for peptide degradation analysis via SDS-PAGE or mass spectrometry were boiled at 95 °C for ten minutes using a heat block to terminate the reaction.
# This service was provided by the University of Dundee (Dundee, UK).
# [6] = 5 mM EDTA pre-incubated 30 min with sputum (100-fold in TBS), then peptide 24 h at 37 °C
# human sputum leucocyte elastase (neutrophil elastase, NE) (Homo sapiens, UniProt P08246), sequence (P08246 30-247 limits assumed): as above
sequence,measurement,setting,value
KRFKKFFKKLKNSVKKRAKKFFKKPRVI [SnE1-F],Cleavage by neutrophil elastase,[1],gradual transition from one band of larger molecular weight to one or more bands of smaller molecular weight
same,"Effect of E64 (cysteine protease inhibitor) on degradation in CF sputum, 24 h","[2]; 0.1 mM E64 pre-incubated 30 min with sputum (100-fold in TBS), then peptide 24 h at 37 °C",did not prevent
same,"Effect of pefabloc (serine protease inhibitor) on degradation in CF sputum, 4 h",[2]; then peptide 4 h at 37 °C,prevented in the presence of pefabloc
same,"Effect of pefabloc (serine protease inhibitor) on degradation in CF sputum, 24 h",[2]; then peptide 24 h at 37 °C,prevented the degradation
same,"Effect of EDTA (MMP inhibitor) on degradation in CF sputum, 24 h",[2]; [6],did not prevent
same,Degradation in CF sputum within 4 h,"[2]; CF sputum diluted 100-fold in 1X TBS, 37 °C, 0-4 h, peptide 500 μg/mL or parental molar equivalent (160 or 120 μM), Coomassie, visual",some degradation
KFFKRLLKSVRRAVKKFRKK [Sn1a],"Effect of pefabloc (serine protease inhibitor) on degradation in CF sputum, 4 h",[2]; then peptide 4 h at 37 °C,prevented only by the inhibitor pefabloc
KRFKKFFKRLLKSV,not cleaved,[3],did not exhibit obvious degradation when incubated with CF sputum after 4 h
KRFKKFFKRLLKSV [Sn1bN],Cleavage by neutrophil elastase,[1],did not result in obvious cleavage
KRFKKFFKKLKNSV [SnE1N],Cleavage by neutrophil elastase,[1],appeared to remain intact
same,"Effect of pefabloc (serine protease inhibitor) on degradation in CF sputum, 24 h",[2]; then peptide 24 h at 37 °C,prevented degradation
same,"Effect of EDTA (MMP inhibitor) on degradation in CF sputum, 24 h",[2]; [6],prevented degradation
KRFKKFFKKLKNSVKKRAKKFFKKPRVIGVSIPF,cleaved bond,[4],V-K and I-G
KRFKKFFKRLLKSVRRAVKKFRKK [Sn1b],Cleavage by neutrophil elastase,[1],rapidly cleaved
same,"Effect of EDTA (MMP inhibitor) on degradation in CF sputum, 4 h","[2]; 5 mM EDTA pre-incubated 30 min with sputum (100-fold in TBS), then peptide 4 h at 37 °C",inhibited
KRFKKFFKRLLKSVRRAVKKFRKK,cleaved bond,[4],V-R
KRFKKFFKKVKKSVKKRLKKIFKKPMVIGVTIPF,cleaved bond,[4],V-K and I-F
KRFKKFFKKVKKSVKKRLKKIFKKPMVIGVTIPF [SnV1],"Effect of pefabloc (serine protease inhibitor) on degradation in CF sputum, 4 h",[2]; then peptide 4 h at 37 °C,prevented only by the inhibitor pefabloc
KRFKKFFKKLKNSVKKRAKKFFKKPRVIGVSIPF [SnE1],Cleavage by neutrophil elastase,[1],gradual transition from one band of larger molecular weight to one or more bands of smaller molecular weight
same,Neutrophil elastase cleavage sites (peptide cleaved after each site marked),[5],KRFKKFFKKLKNSV│[…]│GVSIPF
KFFKRLLKSVRRAVKKFRKKPRLIGLSTLL [Sn1],"Effect of pefabloc (serine protease inhibitor) on degradation in CF sputum, 4 h",[2]; then peptide 4 h at 37 °C,prevented only by the inhibitor pefabloc
